Assay results from patent publication US20230365563A1, “QUINAZOLINE COMPOUND AND APPLICATION THEREOF” (SHANGHAI PHARMACEUTICALS HOLDING CO., LTD., priority 2020, published 2023).
Counter-ions that a name gives are not always drawn.

Key:
[1] = target: T1, KRAS-G12D and SOS1 (Homo sapiens, UniProt P01116, G12D); assay: Inhibition of KRAS-G12D/SOS1 binding (Cisbio binding kit, 665/615 ratio), Effect Embodiment A; settings: read-out: GTP-KRAS-G12D:SOS1 IC50
T1 construct: purchased
Outline: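 Compounds underwent 3-fold dilution from their storage solutions (11 points), were transferred to assay wells in duplicate with DMSO held at 1% final, and were briefly centrifuged.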

[2] = target: T2, KRAS_G12D and cRAF (Homo sapiens, UniProt P01116, G12D); assay: Inhibition of KRAS_G12D/cRAF binding (Cisbio binding kit, 665/615 ratio), Effect Embodiment B; settings: read-out: GTP-KRAS-G12D:CRAF IC50
T2 construct: purchased
T2 sequence (P01116 1-188 isoform P01116-2 G12D): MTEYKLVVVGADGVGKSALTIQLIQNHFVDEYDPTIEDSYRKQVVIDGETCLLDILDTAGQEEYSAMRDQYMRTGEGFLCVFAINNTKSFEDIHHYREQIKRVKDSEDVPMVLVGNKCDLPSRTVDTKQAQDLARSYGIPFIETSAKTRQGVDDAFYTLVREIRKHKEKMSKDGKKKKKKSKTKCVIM
Experimental: (§1) Similarly, the first dilution point of the compound to be tested was its storage solution, and the solution was 3-fold diluted, with 11+0 points of dilution. Echo was used to transfer 0.2 μL gradient diluted solution of the compounds into a 384-well plate, with 2 duplicated wells for each compound, and the final concentration of DMSO was 1%. The solution was centrifuged for 1 min at 1000 rpm/min.
(§2) IC50 of the compounds was fitted by Graphpad Prism 8 nonlinear regression equation: […]
(§3) The IC50 (half inhibitory concentration) of the compound was obtained by using the following nonlinear fitting formula: […]

[3] = target: T3, KRAS_WT and SOS1 (Homo sapiens, UniProt P01116); assay: Inhibition of KRAS_WT/SOS1 binding (Cisbio binding kit, 665/615 ratio), Effect Embodiment C; settings: read-out: GTP-KRAS-WT:SOS1 IC50
T3 construct: purchased
T3 sequence (P01116 1-188 isoform P01116-2): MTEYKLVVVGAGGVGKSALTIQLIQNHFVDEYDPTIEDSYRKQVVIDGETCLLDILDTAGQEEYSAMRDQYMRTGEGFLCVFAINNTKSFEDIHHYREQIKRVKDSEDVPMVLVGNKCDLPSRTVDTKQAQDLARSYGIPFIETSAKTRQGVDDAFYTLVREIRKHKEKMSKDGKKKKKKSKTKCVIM
Experimental: The inhibitory ability of small molecule compounds on the binding activity of KRAS_WT and SOS1 was examined by a drug screening system based on the combination of KRAS_WT and SOS1.
as §1, §2, §3

T1 sequence (P01116 1-188 isoform P01116-2 G12D): as the sequence (P01116 1-188 isoform P01116-2 G12D) above

Row | IC50 [1] [nM] | IC50 [2] [nM] | IC50 [3] [nM] | Structure (SMILES)
1 | 36.9 | 213 | 401 | CN(C)C1CN(c2nc(N3C[C@@H]4CC[C@H]3CN4)c3cc(Cl)c(-c4cc(O)cc5ccccc45)c(F)c3n2)C1 (single isomer, unassigned) [Compound 4a, (R or S)-4-(4-((1S,4S)-2,5-diazabicyclo [2.2.2]octan-2-yl)-6-chloro-2-(3-(dimethylamino)azetidin-1-yl)-8-fluoro-quinazolin-7-yl)naphthalen-2-ol]
2 | 21.6 | 102 | 1560 | CN(C)CCCOc1nc(N2C[C@H]3CC[C@@H](C2)N3)c2cnc(-c3cc(O)cc4ccccc34)c(F)c2n1 [Compound 82, 4-(4-((1R,5S)-3,8-diazabicyclo[3.2.1]octan-3-yl)-2-(3-(dimethylamino)propoxy)-8-fluoropyrido[4,3-d]pyrimidin-7-yl)naphthalen-2-ol]
3 | 21.6 | 18.1 | 836 | CC(COc1nc(N2CC3CCC(C2)N3)c2cc(Cl)c(-c3cc(O)cc4ccccc34)c(F)c2n1)CN1C2CCC1COC2 (single isomer, unassigned) [Compound 178a, 4-((7R or 7S)-2-((2R or 2S)-3-(3-oxa-8-azabicyclo[3.2.1]octan-8-yl)-2-methylpropoxy)-4-((1R,5S)-3,8-diazabicyclo[3.2.1]octan-3-yl)-6-chloro-8-fluoroquinazolin-7-yl)naphthalen-2-ol diformate]
4 | 27.9 | 155 | 205 | CN1CCC[C@H]1COc1nc(N2CC3(C)CCC(C)(C2)N3)c2cc(Cl)c(-c3cc(O)cc4ccccc34)c(F)c2n1 (single isomer, unassigned) [Compound 194a, 4-((R or S)-6-chloro-4-((1R,5S)-1,5-dimethyl-3,8-diazabicyclo[3.2.1]octan-3-yl)-8-fluoro-2-(((S)-1-methylpyrrolidin-2-yl)methoxy)quinazolin-7-yl)naphthalen-2-ol diformate]
5 | 12.3 | 82.1 | 2030 | CNCCCOc1nc(N2CC3CCC(C2)N3)c2cc(Cl)c(-c3cc(O)cc4ccccc34)c(F)c2n1 (single isomer, unassigned) [Compound 93, 4-((S or R)-4-((1R,5S)-3,8-diazabicyclo[3.2.1]octan-3-yl)-6-chloro-8-fluoro-2-(3-(methylamino)propoxy)quinazolin-7-yl)naphthalen-2-ol dihydrochloride]
6 | 15.1 | 78.2 | 1100 | CN1CC(COc2nc(N3CC4CCC(C3)N4)c3cc(Cl)c(-c4cc(O)cc5ccccc45)c(F)c3n2)C1 (single isomer, unassigned) [Compound 91, 4-((S or R)-4-((1R,5S)-3,8-diazabicyclo[3.2.1]octan-3-yl)-6-chloro-8-fluoro-2-((1-methylazetidin-3-yl)methoxy)quinazolin-7-yl)naphthalen-2-ol tritrifluoroacetate]
7 | 38.3 | 139 | 1020 | Oc1cc(-c2c(Cl)cc3c(N4CC5CCC(C4)N5)nc(OCCCN4CCCCC4)nc3c2F)c2ccccc2c1 (single isomer, unassigned) [Compound 66a, 4-((S or R)-4-((1R,5S)-3,8-diazabicyclo[3.2.1]octan-3-yl)-6-chloro-8-fluoro-2-(3-(piperidin-1-yl)propoxy)quinazolin-7-yl)naphthalen-2-ol]
8 | 13.7 | 7.79 | 10.3 | CN(C)C(=O)OCC1CCC2(COc3nc(N4CC5CCC(C4)N5)c4cc(Cl)c(-c5cc(O)cc6ccccc56)c(F)c4n3)CCCN12 (single isomer, unassigned) [Compound 232a]
9 | 16.4 | 11.8 | 160 | CCc1c(F)ccc2cc(O)cc(-c3c(F)cc4c(N5CC6CCC(C5)N6)nc(OC[C@H](C)CN5C6CCC5COC6)nc4c3F)c12 (single isomer, unassigned) [Compound 229a, 4-((7S or 7R)-2-((2R)-3-(3-oxa-8-azabicyclo[3.2.1]octan-8-yl)-2-methylpropoxy)-4-((1R,5S)-3,8-diazabicyclo[3.2.1]octan-3-yl)-6,8-difluoroquinazolin-7-yl)-5-ethyl-6-fluoronaphththalen-2-ol formate]
10 | 27.6 | 67.6 | 257 | CCc1c(F)ccc2cc(O)cc(-c3c(Cl)cc4c(N5CC6CCC(C5)N6)nc(OCCCN5C6CCC5COC6)nc4c3F)c12 (single isomer, unassigned) [compound 251]
11 | 39.1 | 158 | 1770 | Oc1cc(-c2c(Cl)cc3c(N4CC5CCC(C4)N5)nc(OCCCN4C5CCC4COC5)nc3c2F)c2ccccc2c1 (single isomer, unassigned) [Compound 106, (4S or R)-4-(2-(3-(3-oxa-8-azabicyclo[3.2.1]octan-8-yl)propoxy)-4-((1R,5S)-3,8-diazabicyclo[3.2.1]octan-3-yl)-6-chloro-8-fluoroquinazolin-7-yl)naphthalen-2-ol dihydrochloride]
12 | 16.5 | 13.6 | 175 | CCc1cccc2cc(O)cc(-c3c(F)cc4c(N5CC6CCC(C5)N6)nc(OCCCN5CCOC[C@H]5C)nc4c3F)c12 (single isomer, unassigned) [Compound 282a, (S or R)-4-(4-((1R,5S)-3,8-diazacyclo[3.2.1]octan-3-yl)-6,8-difluoro-2-(3-((R)-3-methylmorpholinyl)propoxy)quinazolin-7-yl)-5-ethylnaphthalen-2-ol dihydrochloride]
13 | 17.3 | 11 | 251 | CCc1cccc2cc(O)cc(-c3c(F)cc4c(N5CC6CCC(C5)N6)nc(OC[C@H](C)CN5C6CCC5COC6)nc4c3F)c12 (single isomer, unassigned) [Compound 284a, (4S or 4R)-4-(2-((2R)-3-(3-oxa-8-azabicyclo[3.2.1]octan-8-yl)-2-methylpropoxy)-4-((1R,5S)-3,8-diazabicyclo[3.2.1]octan-3-yl)-6,8-difluoroquinazolin-7-yl)-5-ethylnaphthalen-2-ol dihydrochloride]
14 | 91.2 | 286 | 5830 | CC1OCCN(CCCOc2nc(N3CC4CCC(C3)N4)c3cc(Cl)c(-c4cc(O)cc5ccccc45)c(F)c3n2)C1C (single isomer, unassigned) [Compound 265a, 4-((R or S)-4-((1R,5S)-3,8-diazabicyclo[3.2.1]octan-3-yl)-6-chloro-2-(3-((2R or 2S, 3S or 3R)-2,3-dimethylmorpholinyl)propoxy)-8-fluoroquinazolin-7-yl)naphthalen-2-ol diformate]
15 | 52.4 | 346 | 3610 | C[C@H]1CCCCN1CCOc1nc(N2CC3CCC(C2)N3)c2cc(Cl)c(-c3cc(O)cc4ccccc34)c(F)c2n1 (single isomer, unassigned) [Compound 268, (R or S)-4-(4-((1R,5S)-3,8-diazacyclo[3.2.1]octan-3-yl)-6-chloro-8-fluoro-2-(2-((S)-2-methylpiperidin-1-yl)ethoxy)quinazolin-7-yl)naphthalen-2-ol diformate]
16 | 19.4 | 120 | 1260 | CN(CCCCN1CCNCC1)CCCOc1nc(N2C[C@H]3CC[C@@H](C2)N3)c2cc(Cl)c(-c3cc(O)cc4ccccc34)c(F)c2n1 (single isomer, unassigned) [Compound 103, (S or R)-4-(4-((1R,5S)-3,8-diazabicyclo[3.2.1]octan-3-yl)-6-chloro-8-fluoro-2-(3-(methyl(4-(piperazin-1-yl)butyl)amino)propoxy)quinazolin-7-yl)naphthalen-2-ol tetrahydrochloride]
17 | 74.1 | 417 | 38300 | CN(C)C1CCC(Oc2nc(N3CC4CCC(C3)N4)c3cc(Cl)c(-c4cc(O)cc5ccccc45)c(F)c3n2)C1 (single isomer, unassigned) [Compound 70c, 4-((S or R)-4-((1R,5S)-3,8-diazabicyclo[3.2.1]octan-3-yl)-6-chloro-2-((1S,3S or 1R,3R)-3-(dimethylamino)cyclopentyl)oxy)-8-fluoroquinazolin-7-yl)naphthalen-2-ol dihydrochloride]
18 | 188 |  | 279 | CN(C)C1CN(c2nc(N3C4CC5CC3CC(C4)N5)c3cc(Cl)c(-c4cc(O)cc5ccccc45)c(F)c3n2)C1 (single isomer, unassigned) [Compound 34, 4-((S or R)-4-(2,6-diazaadamantan-2-yl)-6-chloro-2-(3-(dimethylamino)azetidin-1-yl)-8-fluoroquinazolin-7-yl)naphthalen-2-ol]
19 | 44.2 |  | 847 | CN(C)C1CN(c2nc(N3C[C@H]4CC[C@@H](C3)N4)c3cnc(-c4cc(O)cc5ccccc45)c(F)c3n2)C1 [Compound 78, 4-(4-((1R,5S)-3,8-diazabicyclo[3.2.1]octan-3-yl)-2-(3-(dimethylamino)azetidin-1-yl)-8-fluoropyridine[4,3-d]pyrimidin-7-yl)naphthalen-2-ol]
20 | 277 |  | > 100000 | CN(C)C1CN(c2nc(N3CCC4NCCC43)c3cc(Cl)c(-c4cc(O)cc5ccccc45)c(F)c3n2)C1 (single isomer, unassigned) [Compound 36, 4-((S or R)-6-chloro-2-(3-(dimethylamino)azetidin-1-yl)-8-fluoro-4-((3aS,6aS or 3aR,6aR)-hexahydropyrrolo [3,2-b]pyrrole-1(2H)-yl)quinazolin-7-yl)naphthalen-2-ol]
